Results from article PMC5120670 (European journal of medicinal chemistry, 2016).
Values belong to the molecule of their own block, whether it stands above or below them.

Legend:
[1] = system: T. brucei (bloodstream form strain 427); assay: T. brucei growth inhibition assay; format: cell-based, Trypanosoma brucei; details: for cellular activity improvement compared to 3: relative to compound 3
[2] = target: T1, T. brucei methionyl-tRNA synthetase (TbMetRS) (Trypanosoma brucei brucei, UniProt Q38C91); assay: Enzyme inhibition assay; format: biochemical
T1 sequence (Q38C91 1-773): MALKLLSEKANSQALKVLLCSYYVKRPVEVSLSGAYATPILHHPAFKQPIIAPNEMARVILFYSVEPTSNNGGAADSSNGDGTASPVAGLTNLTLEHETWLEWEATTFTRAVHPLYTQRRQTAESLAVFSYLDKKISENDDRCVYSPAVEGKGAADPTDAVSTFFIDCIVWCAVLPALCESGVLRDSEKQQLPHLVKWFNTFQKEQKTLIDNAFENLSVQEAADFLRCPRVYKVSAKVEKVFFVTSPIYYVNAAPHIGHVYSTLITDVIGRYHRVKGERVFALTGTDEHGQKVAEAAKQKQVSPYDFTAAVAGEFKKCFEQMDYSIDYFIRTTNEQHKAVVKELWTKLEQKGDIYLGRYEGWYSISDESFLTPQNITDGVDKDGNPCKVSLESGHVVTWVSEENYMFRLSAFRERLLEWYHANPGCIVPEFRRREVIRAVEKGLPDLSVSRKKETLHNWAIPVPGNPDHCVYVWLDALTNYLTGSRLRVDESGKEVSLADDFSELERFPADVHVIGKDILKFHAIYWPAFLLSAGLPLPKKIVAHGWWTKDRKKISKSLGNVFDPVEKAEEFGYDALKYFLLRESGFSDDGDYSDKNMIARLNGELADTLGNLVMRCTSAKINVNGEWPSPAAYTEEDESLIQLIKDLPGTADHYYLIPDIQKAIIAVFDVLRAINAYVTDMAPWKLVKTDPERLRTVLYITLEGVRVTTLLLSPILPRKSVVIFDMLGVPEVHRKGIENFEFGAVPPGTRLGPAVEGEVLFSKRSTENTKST

[3] = PK studies in mice; format: in vivo; details: for AUC: mice, oral administration at 50 mg/kg
[4] = Distribution of compounds between mouse plasma and brain; format: in vivo; details: mice, 5 mg/kg IP, 60 min after injection
[5] = system: hepatocellular carcinoma cell line (Hep G2); assay: Mammalian cell growth inhibition assay, Hep G2; format: cell-based; details: Homo sapiens, HepG2, 48 h, read-out: Hep G2 EC50
[6] = system: human lymphoblast cell line (CRL-8155); assay: Mammalian cell growth inhibition assay, CRL-8155

Compound: O=C(Cc1cc(Cl)cc(Cl)c1)N1CCCC(c2nc3cc(Cl)ccc3[nH]2)C1 (stereo not drawn) [Compound 6, 1-(3-(5-chloro-1H-benzo[d]imidazol-2-yl)piperidin-1-yl)-2-(3,5-dichlorophenyl) ethanone]
cellular activity improvement compared to 3 [1]: approximately 5 fold

Compound: O=C(Cc1cc(Cl)cc(Cl)c1)N1CCCC(c2nc3nc(Cl)ccc3[nH]2)C1 (stereo not drawn) [Compound 7, 1-(3-(5-chloro-1H-imidazo[4,5-b]pyridin-2-yl)piperidin-1-yl)-2-(3,5-dichlorophenyl)ethanone]
cellular activity improvement compared to 3 [1]: approximately 5 fold
IC50 [2]: < 50 nM

Compound: Clc1cc(Cl)cc(CCN2CCCC(c3nc4nc(Cl)ccc4[nH]3)C2)c1 (stereo not drawn) [Compound 10, 5-chloro-2-(1-(3,5-dichlorophenethyl)piperidin-3-yl)-1H-imidazo[4,5-b]pyridine]
decreased potency compared to 6 ([1]; relative to compound 6): around 3 fold

Compound: Clc1cc(Cl)cc(CNC2CCCC(c3nc4nc(Cl)ccc4[nH]3)C2)c1 (stereo not drawn) [Compound 12, 3-(5-chloro-1H-imidazo[4,5-b]pyridin-2-yl)-N-(3,5-dichlorobenzyl) cyclohexanamine]
lower EC50 compared to 6 ([1]; relative to compound 6): 4 fold

Compound: Clc1cc(Cl)cc(CNC2CCCN(c3nc4nc(Cl)ccc4[nH]3)C2)c1 (stereo not drawn) [Compound 14, 1-(5-chloro-1H-imidazo[4,5-b]pyridin-2-yl)-N-(3,5-dichlorobenzyl)piperidin-3-amine]
lower EC50 compared to compound 12 ([1]; relative to compound 12): ~ 4 fold
IC50 [2]: < 50 nM

The next lines start with results.

AUC [3]: 6223 min*µ mol/L
brain levels [4]: nearly undetectable
lower EC50 compared to R-isomer 15 ([1]; relative to compound 15): > 25 fold
IC50 [2]: < 50 nM
Compound: Clc1cc(Cl)cc(CN[C@H]2CCCN(c3nc4nc(Cl)ccc4[nH]3)C2)c1 [Compound 16, (S)-1-(5-chloro-1H-imidazo[4,5-b]pyridin-2-yl)-N-(3,5-dichlorobenzyl) piperidin-3-amine]

IC50 [2]: < 50 nM
Compound: Clc1cc(Cl)cc(CN[C@H]2CCN(c3nc4ccc(Cl)nc4[nH]3)C2)c1 [Compound 24, (S)-1-(5-chloro-3H-imidazo[4,5-b]pyridin-2-yl)-N-(3,5-dichlorobenzyl) pyrrolidin-3-amine]
more potent than the R-isomer 23 ([1]; relative to compound 23): ~ 6 fold

EC50 [5]: 39200 nM
AUC [3]: 952 min*µ mol/L
Cmax ([3]; mouse, whole blood, po, 50 mg/kg): 9.7 µM
EC50 ([1]; Trypanosoma brucei, 48 h): 22 nM
lower EC50 compared to compound 29 ([1]; relative to compound 29): ~ 3 fold
IC50 [2]: < 50 nM
Compound: CN(CCNCc1cc(Cl)cc(Cl)c1)c1nc2nc(Cl)ccc2[nH]1 [Compound 31, N1-(5-chloro-1H-imidazo[4,5-b]pyridin-2-yl)-N2-(3,5-dichlorobenzyl)-N1-methylethane-1,2-diamine]
EC50 ([6]; Homo sapiens, CRL8155, 48 h, read-out: CRL-8155 EC50): 22600 nM
selectivity index ([6]; mammalian cells versus T. brucei): 1027
